Earlier results on five molecules are cited in paper PMC9516332 (Frontiers in Oncology, 2022).

Read-outs that look alike come from different tables or passages of the source.

Data set [1] addresses T1, panel of 255 wild-type kinases (Homo sapiens, UniProt Q15139).
T1 sequence (Q15139 1-912): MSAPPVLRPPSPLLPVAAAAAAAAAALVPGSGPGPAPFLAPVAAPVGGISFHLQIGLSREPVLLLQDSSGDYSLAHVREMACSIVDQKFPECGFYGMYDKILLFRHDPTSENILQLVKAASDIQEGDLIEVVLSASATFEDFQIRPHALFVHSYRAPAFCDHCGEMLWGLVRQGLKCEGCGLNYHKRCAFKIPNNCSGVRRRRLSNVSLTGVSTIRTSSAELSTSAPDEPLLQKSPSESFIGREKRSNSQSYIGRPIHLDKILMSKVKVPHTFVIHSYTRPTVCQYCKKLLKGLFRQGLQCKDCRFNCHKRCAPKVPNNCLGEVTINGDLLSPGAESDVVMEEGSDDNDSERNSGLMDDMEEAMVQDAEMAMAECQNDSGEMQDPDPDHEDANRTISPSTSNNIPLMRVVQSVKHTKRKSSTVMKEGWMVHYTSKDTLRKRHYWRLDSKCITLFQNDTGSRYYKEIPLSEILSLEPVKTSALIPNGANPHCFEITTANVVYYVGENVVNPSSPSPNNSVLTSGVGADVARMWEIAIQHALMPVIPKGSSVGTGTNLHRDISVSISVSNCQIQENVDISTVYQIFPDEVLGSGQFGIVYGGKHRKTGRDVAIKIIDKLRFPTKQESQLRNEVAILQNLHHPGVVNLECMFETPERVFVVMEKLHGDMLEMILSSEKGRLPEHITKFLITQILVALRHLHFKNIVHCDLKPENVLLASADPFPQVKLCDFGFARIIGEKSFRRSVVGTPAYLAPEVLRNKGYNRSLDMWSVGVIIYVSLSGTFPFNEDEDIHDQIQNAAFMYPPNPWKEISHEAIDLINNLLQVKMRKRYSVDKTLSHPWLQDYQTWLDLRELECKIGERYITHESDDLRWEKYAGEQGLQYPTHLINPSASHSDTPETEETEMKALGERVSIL
To be noted: kinase PKD1, 1 µmol/L single concentration, cited from earlier work.

For data set [2], the target named is panel of 255 wild-type kinases (Homo sapiens, UniProt O00311). To be noted: CDC7/ASK kinase assay, 1 µmol/L single concentration, cited from earlier work.
Data set [3] has as its target panel of 255 wild-type kinases (Homo sapiens, UniProt Q8IU85). Particulars: CaMK1δ kinase assay, 1 µmol/L single concentration, cited from earlier work.
For data set [4], the target named is panel of 255 wild-type kinases (Homo sapiens, UniProt Q04912). To be noted: kinase RON, 1 µmol/L single concentration, cited from earlier work.
In data set [5] the target is panel of 255 wild-type kinases (Homo sapiens, UniProt Q08345). To be noted: kinase DDR1, 1 µmol/L single concentration, cited from earlier work.
For data set [6], the target named is panel of 255 wild-type kinases (Homo sapiens, UniProt P24941). Particulars: 1 µmol/L single concentration, cited from earlier work; for %-inhibition CDK2/CycA2: CDK2/CycA2 kinase assay; for %-inhibition CDK2/CycE1: CDK2/CycE1 kinase assay.
In data set [7] the target is panel of 255 wild-type kinases (Homo sapiens, UniProt Q13557). To be noted: CaMK2δ kinase assay, 1 µmol/L single concentration, cited from earlier work.
The target of data set [8] is panel of 255 wild-type kinases (Homo sapiens, UniProt Q00535). Particulars: CDK5/p25 kinase assay, 1 µmol/L single concentration, cited from earlier work.
The target in data set [9] is panel of 255 wild-type kinases (Homo sapiens, UniProt P05771). To be noted: kinase PKCβ1, 1 µmol/L single concentration, cited from earlier work.
For data set [10], the target named is panel of 255 wild-type kinases (Homo sapiens, UniProt P68400). To be noted: kinase CK2α1/β, 1 µmol/L single concentration, cited from earlier work.
Data set [11] deals with panel of 255 wild-type kinases (Homo sapiens, UniProt P09619). To be noted: kinase PDGFRβ, 1 µmol/L single concentration, cited from earlier work.
For data set [12], the target named is panel of 255 wild-type kinases (Homo sapiens, UniProt P49840). Particulars: cited from earlier work.
The target of data set [13] is panel of 255 wild-type kinases (Homo sapiens, UniProt Q96GD4). To be noted: AurB kinase assay, 1 µmol/L single concentration, cited from earlier work.
Data set [14] addresses panel of 255 wild-type kinases (Homo sapiens, UniProt P07948). To be noted: kinase LYNa, 1 µmol/L single concentration, cited from earlier work.
Data set [15] has as its target panel of 255 wild-type kinases (Homo sapiens, UniProt P14616). To be noted: kinase IRR, 1 µmol/L single concentration, cited from earlier work.
[16] abbreviates: ref DOI: 10.1158/1535-7163.MCT-18-0877.
[17] abbreviates: ref DOI: 10.1371/journal.pone.0092146.
Where [18] appears, read: kinase GSK3α, 1 µmol/L single concentration, ref DOI: 10.1371/journal.pone.0092146.

Turning to `CC#CC(=O)N1CCC[C@H]1c1nc(-c2ccc(C(=O)Nc3ccccn3)cc2)c2c(N)nccn12` [acalabrutinib], the “%-inhibition at 1 µmol/L, PKD1” value in data set [1] (setting [16]) is -9.48%. Also, the “%-inhibition CDC7/ASK” value in data set [2] (setting [16]) is -1.64%. Also, in data set [3] (setting [16]), the “%-inhibition CaMK1δ” value is reported as -5%. In addition, the “%-inhibition at 1 µmol/L, RON” value in data set [4] (setting [16]) is reported as 8%. For the same molecule, in data set [5] (setting [16]), the “%-inhibition at 1 µmol/L, DDR1” value is 8%. Also, in [6] (setting [16]), the “%-inhibition CDK2/CycA2” value was -5% and the “%-inhibition CDK2/CycE1” value is -5%. For the same molecule, the “%-inhibition CaMK2δ” value in [7] (setting [16]) is recorded as -3.53%. Moreover, the “%-inhibition CDK5/p25” value in data set [8] (setting [16]) was -19%. Besides, the “%-inhibition at 1 µmol/L, PKCβ1” value in data set [9] (setting [16]) is -11%. The “%-inhibition at 1 µmol/L, CK2α1/β” value in [10] (setting [16]) is 5.34%. In addition, the “%-inhibition at 1 µmol/L, PDGFRβ” value in data set [11] (setting [16]) is recorded as 5.36%. In data set [12] (kinase GSK3α, 1 µmol/L single concentration, ref DOI: 10.1158/1535-7163.MCT-18-0877), the “%-inhibition at 1 µmol/L, GSK3α” value is 2.47%. In addition, the “%-inhibition AurB” value in data set [13] (setting [16]) is reported as 11%. In addition, in data set [14] (setting [16]), the “%-inhibition at 1 µmol/L, LYNa” value is 2%. For the same molecule, in [15] (setting [16]), the “%-inhibition at 1 µmol/L, IRR” value is on record as -0.87%.
Consider `C[C@@H](Oc1cc(-c2cnn(C3CCNCC3)c2)cnc1N)c1c(Cl)ccc(F)c1Cl` [crizotinib], for which, in data set [3] (setting [17]), the “%-inhibition CaMK1δ” value is listed as -4%. Further, the “%-inhibition at 1 µmol/L, DDR1” value in [5] (setting [17]) is reported as 97%. Besides, in [6] (setting [17]), the “%-inhibition CDK2/CycA2” value is on record as 3% and the “%-inhibition CDK2/CycE1” value was -14%. Moreover, the “%-inhibition CaMK2δ” value in data set [7] (setting [17]) was 4%. Also, the “%-inhibition CDK5/p25” value in data set [8] (setting [17]) is -8%. Moreover, the “%-inhibition at 1 µmol/L, PKCβ1” value in data set [9] (setting [17]) is recorded as -3%. For the same molecule, the “%-inhibition at 1 µmol/L, CK2α1/β” value in data set [10] (setting [17]) was -6.39%. In data set [11] (setting [17]), the “%-inhibition at 1 µmol/L, PDGFRβ” value is listed as 18%. Also, in data set [12] (setting [18]), the “%-inhibition at 1 µmol/L, GSK3α” value is reported as -2.56%. In [14] (setting [17]), the “%-inhibition at 1 µmol/L, LYNa” value is listed as 42%.
For `CC(C)(C)c1nc(-c2cccc(NS(=O)(=O)c3c(F)cccc3F)c2F)c(-c2ccnc(N)n2)s1` [dabrafenib], the “%-inhibition at 1 µmol/L, PKD1” value in [1] (setting [17]) is recorded as 83%. Also, in data set [2] (setting [17]), the “%-inhibition CDC7/ASK” value is recorded as -6%. The “%-inhibition at 1 µmol/L, RON” value in data set [4] (setting [17]) is given as 37%. The “%-inhibition at 1 µmol/L, DDR1” value in [5] (setting [17]) is 96%. The “%-inhibition CaMK2δ” value in [7] (setting [17]) is -0.23%. Besides, in data set [8] (setting [17]), the “%-inhibition CDK5/p25” value is 22%. Also, the “%-inhibition AurB” value in data set [13] (setting [17]) is 39%. For the same molecule, the “%-inhibition at 1 µmol/L, IRR” value in [15] (setting [17]) is listed as 10%.
Consider `CO[C@@H]1[C@H](N(C)C(=O)c2ccccc2)C[C@H]2O[C@]1(C)n1c3ccccc3c3c4c(c5c6ccccc6n2c5c31)C(=O)NC4` [midostaurin], for which the “%-inhibition CDC7/ASK” value in data set [2] (setting [16]) is 60%. For the same molecule, the “%-inhibition at 1 µmol/L, RON” value in data set [4] (setting [16]) is 22%. Besides, the “%-inhibition at 1 µmol/L, DDR1” value in [5] (setting [16]) was 98%. Also, in data set [6] (setting [16]), the “%-inhibition CDK2/CycA2” value is 52% and the “%-inhibition CDK2/CycE1” value is 22%. The “%-inhibition at 1 µmol/L, PKCβ1” value in [9] (setting [16]) is 89%. Besides, the “%-inhibition at 1 µmol/L, CK2α1/β” value in data set [10] (setting [16]) was -5.6%. For the same molecule, in [11] (setting [16]), the “%-inhibition at 1 µmol/L, PDGFRβ” value was 100%. For the same molecule, the “%-inhibition at 1 µmol/L, GSK3α” value in data set [12] is reported as 87%. For the same molecule, the “%-inhibition AurB” value in [13] (setting [16]) is 86%. For the same molecule, in data set [14] (setting [16]), the “%-inhibition at 1 µmol/L, LYNa” value was 90%. In data set [15] (setting [16]), the “%-inhibition at 1 µmol/L, IRR” value is reported as 26%.
On to `CC(=O)Nc1cccc(-n2c(=O)n(C3CC3)c(=O)c3c(Nc4ccc(I)cc4F)n(C)c(=O)c(C)c32)c1` [trametinib], for which, in [1] (setting [17]), the “%-inhibition at 1 µmol/L, PKD1” value is given as 9%. Besides, the “%-inhibition CDC7/ASK” value in [2] (setting [17]) is reported as -8%. In addition, the “%-inhibition CaMK1δ” value in data set [3] (setting [17]) is -3.3%. Besides, in [4] (setting [17]), the “%-inhibition at 1 µmol/L, RON” value was -6.44%. For the same molecule, in data set [6] (setting [17]), the “%-inhibition CDK2/CycA2” value is recorded as 24% and the “%-inhibition CDK2/CycE1” value is on record as 2.59%. Besides, the “%-inhibition CaMK2δ” value in data set [7] (setting [17]) was -2.19%. Further, the “%-inhibition CDK5/p25” value in data set [8] (setting [17]) is reported as 19%. Moreover, the “%-inhibition at 1 µmol/L, PKCβ1” value in data set [9] (setting [17]) is given as -3.47%. The “%-inhibition at 1 µmol/L, CK2α1/β” value in data set [10] (setting [17]) is listed as -3.4%. For the same molecule, the “%-inhibition at 1 µmol/L, PDGFRβ” value in data set [11] (setting [17]) is recorded as 3.44%. In addition, in data set [12] (setting [18]), the “%-inhibition at 1 µmol/L, GSK3α” value is recorded as 1.59%. Further, the “%-inhibition AurB” value in data set [13] (setting [17]) is recorded as -4%. The “%-inhibition at 1 µmol/L, LYNa” value in data set [14] (setting [17]) was -1.74%. Also, the “%-inhibition at 1 µmol/L, IRR” value in data set [15] (setting [17]) was 1.35%.
